Each structure is given as a SMILES string.

As a reminder, the EC50 is the concentration at which the effect is half-maximal.

This assay is described as follows: Cell Surface Biotinylation Assay: Huh7.5.1 cells from four 150 mm plates were treated with DMSO, Roc-A (20 nM), or infected by HCVcc. 48 h post-transfection, cells were washed three times with ice-cold PBS and resuspended in PBS at a density of 25×10^6 cells/ml. Freshly prepared Sulfo-NHS-SS-biotin (Pierce) was added to the cells (final concentration […]) and allowed to incubate at 4° C. for 30 min. Cells were then washed three times with ice-cold PBS. 25 mM Tris (pH 8.0) was added in the initial wash to quench any non-reacted biotin reagent. Following cell lysis in RIPA buffer (50 mM Tris-HCl [pH 7.5], 150 mM NaCl, 1% NP-40, 0.25% sodium deoxycholate, 1 mM EDTA, 2 mM Na3VO4 and Pierce protease inhibitor cocktail), lysates were cleared by centrifugation at 13,000×g for 15 min at 4° C. The cleared lysates were used for immunoprecipitation using a 1:1 mixture of Streptavidin beads (Pierce). Beads were washed three times with RIPA buffer, and bound proteins were eluted by boiling the samples in SDS-PAGE sample buffer and then resolved on 9% SDS-PAGE. Biotinylated proteins were detected by anti-PHB1 and anti-PHB2 antibodies. The settings on record: Huh-7.5.1.

As to `COc1ccc([C@@]23Oc4cc(OC)cc(OC)c4[C@]2(O)c2nc4n(c(=O)c2[C@H]3c2ccccc2)CCC4)cc1` (racemic), the EC50 was 100 nM.

Source of the values: ChEMBL document CHEMBL5725732, “Aglaroxin C and derivatives as HCV entry inhibitors” (2018).
